# Measured values reported in patent US4275065A, “Modulating the immune response with 2-substituted-3-hydroxythiazolo[2,3-b]b e” (American Home Products Corporation, priority 1980, dated 1981).
# Key:
# [1] = test system: antibody-secreting plaque-forming splenocytes (IgG and IgM); experiment: Cunningham modification of the Jerne assay (hemolytic plaque technique), IgM and IgG plaques per spleen; type: in vivo, CDF1 (Balb/c × DBA/2) mice; settings: Table 2, 200 mg/kg
# Experimental: In this example, the compounds of the invention are tested for their effect on antibody-secreting plaque-forming splenocytes (IgG and IgM) in the Cunningham modification of the Jerne assay. This technique is able to detect, in a quantitative manner, antibody producing cells in response to antigen stimulus in the host mouse. For study of […] immune response, sheep erythrocytes (SRBC) are used (as in the present Example), while for humoral immune response, SRBC coupled with pneumococcal polysaccharide is used.
# CDF1 (Balb/c × DBA/2) mice are immunized with 0.1 ml. of 10^8 sheep erythrocytes (SRBC) intraperitonially 4-5 days before the assay. The mice are separated into groups, with one group serving as a control and all other groups receiving compounds of the invention. The treated mice are dosed with drug on day one. […] The spleens of the sacrificed mice are excised and washed several times in RPMI 1640 with 10% fetal bovine serum. 100 λ of spleen cells are mixed with a drop of guinea pig complement, four drops of RPMI 1640 and a drop of 25% SRBC in a microtiter plate well and then pipetted into a Cunningham chamber. On day four, for IgM determinations, the chambers are incubated for 30 minutes at 37° C. Antibody, released by the small proportion of active cells, attaches to the surrounding erythrocytes which are lysed by complement leaving a small plaque up to 0.5 mm. in diameter. Since only cells releasing IgM antibody form plaques directly, a "developing" serum must be added to be able to form and view IgG plaques. Thus fifth or sixth day cultured spleen cells are further treated with rabbit antimouse IgG and then incubated for 45 minutes. Both IgM and IgG plaques are counted under a stereomicroscope.
# In Table 1 are given the IgM and IgG plaque counts per spleen for mice treated with 6-chloro-2-phenylthiazolo[2,3-b]benzothiazol-3(2H)-one mesoionic didehydro derivative and for the controls:
# The assay is repeated using the following compounds of the invention: 2-phenylthiazolo[2,3-b]benzothiazol-3(2H)-one mesoionic didehydro derivative (A), 6-chloro-2-(p-chlorophenyl)-thiazolo[2,3-b]benzothiazol-3(2H)-one mesoionic didehydro derivative (B) and 6-chloro-2-phenylthiazolo[2,3-b]benzothiazol-3(2H)-one mesoionic didehydro derivative (C).
# hemolytic anemia = experiment: autoimmune hemolytic anemia model, serum immunoglobulins; type: in vivo, NZB mice; set-up: IgM, Baseline: unit not given beside the values; settings: for ANA (antinuclear antibody), 1st Reading / IgG, 1st Reading / IgM, 1st Reading: 1st Reading (156 Days); for ANA (antinuclear antibody), 1st Reading / IgG, 1st Reading / IgM, 1st Reading / IgG, % Change / IgM, % Change: 200 mg/kg, four doses over two weeks; for IgG, % Change / IgM, % Change: 142 to 156 Days
# Description: NZB/W F1 mice are divided into two groups according to sex. At the initiation of drug treatment, female mice are 78.2 days old with an average weight of 30 g., while male mice are 69.5 days old with an average weight of 40 g. IgG, IgM and antinuclear antibody determinations are made on pooled samples of serum obtained by capillary bleedings of the suborbital sinus at approximately monthly intervals. The compounds of the invention are suspended in a solution of physiological saline with 0.16% CMC. All dosing is twice weekly intraperitonially.
# Another autoimmune disease model, hemolytic anemia, is used to further evaluate the compounds of the invention. Thus, NZB mice, having an average age of 142 days and with well advanced hemolytic anemia, are divided into treatment groups and are dosed biweekly over a period of two weeks (four doses total) with the following compounds in the same manner as previously described: 6-chloro-2-(p-chlorophenyl)thiazolo[2,3-b]benzothiazol-3(2H)-one mesoionic didehydro derivative (A), 2-phenyl-5,6,7,8-tetrahydrothiazolo[2,3-b]benzothiazol-3(2H)-one mesoionic didehydro derivative (B), 2-phenylthiazolo[2,3-b]benzothiazol-3(2H)-one mesoionic didehydro derivative (C) and 6-chloro-2-trifluoroacetylthiazolo[2,3-b]benzothiazol-3(2H)-one mesoionic didehydro derivative (D). The immunoglobulin values from serum samples are compared with the baseline (pretreatment) for each group and the results are summarized in Table 10: […]
# thymus gland = experiment: effect on the thymus gland (thymus weight); type: in vivo, BDF1 mice; settings: Table 4
# Experimental: The effect of the compounds of the invention on the thymus gland is measured. BDF1 mice of 18-20 gms. weight are dosed at 150 mg/kg. with 6-chloro-2-phenylthiazolo[2,3-b]benzothiazolo-3(2H)-one mesoionic didehydro derivative for eight consecutive days. The mice are sacrificed on the ninth day, the thymus glands excised and weighed. The excised thymus glands averaged […]. as compared to […]. for the control group. […] The weight loss is also correlated to dose, and the results are as follows:
# Using the same technique, the following compounds of the invention were tested: 6-chloro-2-(p-chlorophenyl)thiazolo[2,3-b]benzothiazol-3(2H)-one mesoionic didehydro derivative (A), 2-phenyl-5,6,7,8-tetrahydrothiazolo[2,3-b]benzothiazol-3(2H)-one mesoionic didehydro derivative (B), 2-phenylthiazolo[2,3-b]-benzothiazol-3(2H)-one mesoionic didehydro derivative (C),6-chloro-2-trifluoroacetylthiazolo[2,3-b]benzothiazol-3(2H)-one mesoionic didehydro derivative (D), 6-chloro-3-hydroxy-2-phenylthiazolo[2,3-b]benzothiazolium bromide (E), 7-ethoxy-3-hydroxy-2-phenylthiazolo[2,3-b]benzothiazolium bromide (F), 3-hydroxy-2-phenylthiazolo[2,3-b]benzothiazolium bromide (G), and 3-hydroxy-2-phenyl-5,6,7,8-tetrahydrothiazolo[2,3-b]benzothiazolium bromide (H).
# [2] = test system: delayed hypersensitivity reaction; experiment: guinea pig delayed hypersensitivity assay (PPD); type: in vivo, Male Hartley strain guinea pigs; settings: 50 mg/kg orally, read 24 hours after challenge, * = p < 0.05
# [3] = test system: autoimmune disease (systemic lupus erythematosus); experiment: autoimmune disease (systemic lupus erythematosus), immunoglobulin determinations, male NZB/W mice; type: in vivo, male NZB/W F1 mice; settings: A 100 mg/kg, levamisole 25 mg/kg, i.p. twice weekly
# Experimental: (§1) The effect of the compounds of the invention on the development and progress of autoimmune disease (systemic lupus erythematosus) in the New Zealand F1 hydrid mouse (NZB×NZW) is evaluated. NZB/W F1 mice are divided into two groups according to sex. […] IgG, IgM and antinuclear antibody determinations are made on pooled samples of serum obtained by capillary bleedings of the suborbital sinus at approximately monthly intervals. The compounds of the invention are suspended in a solution of physiological saline with 0.16% CMC. All dosing is twice weekly intraperitonially. […] Immunoglobulin values from serum samples are compared with the baseline (pretreatment) for each group.
# [4] = test system: autoimmune disease (systemic lupus erythematosus); experiment: autoimmune disease (systemic lupus erythematosus), immunoglobulin determinations, female NZB/W mice; type: in vivo, female NZB/W F1 mice; settings: A 100 mg/kg, levamisole 25 mg/kg, i.p. twice weekly
# Experimental: as §1
# [5] = Baseline (142 Days), 200 mg/kg group
structure (smiles),measurement,setting,value
[O-]c1c(-c2ccccc2)sc2sc3ccccc3[n+]12 [A],"IgG, mean (total number of plaques per spleen)",[1]; Day 4,"107,100 plaques per spleen"
same,"IgM, mean (total number of plaques per spleen)",[1]; Day 4,"163,800 plaques per spleen"
same,"IgG, mean (total number of plaques per spleen)",[1]; Day 5,"184,590 plaques per spleen"
same,"IgM, mean (total number of plaques per spleen)",[1]; Day 5,"97,020 plaques per spleen"
same,"ANA (antinuclear antibody), 1st Reading",hemolytic anemia,neg.
same,"IgG, 1st Reading",hemolytic anemia,570
same,"IgM, 1st Reading",hemolytic anemia,176
same,"IgG, % Change",hemolytic anemia,-15%
same,"IgM, % Change",hemolytic anemia,+21%
same,"ANA (antinuclear antibody), Baseline",hemolytic anemia; [5],neg.
same,"IgG, Baseline",hemolytic anemia; [5],674
same,"IgM, Baseline",hemolytic anemia; [5],146
same,toxicity (printed in the thymus weight column),thymus gland; 200 mg/kg,toxic
[O-]c1c(-c2ccc(Cl)cc2)sc2sc3ccc(Cl)cc3[n+]12 [B],"IgG, mean (total number of plaques per spleen)",[1]; Day 4,"9,656 plaques per spleen"
same,"IgM, mean (total number of plaques per spleen)",[1]; Day 4,"74,025 plaques per spleen"
same,"IgG, mean (total number of plaques per spleen)",[1]; Day 5,"49,218 plaques per spleen"
same,"IgM, mean (total number of plaques per spleen)",[1]; Day 5,"50,250 plaques per spleen"
same,"ANA (antinuclear antibody), 1st Reading",hemolytic anemia,neg.
same,"IgG, 1st Reading",hemolytic anemia,304
same,"IgM, 1st Reading",hemolytic anemia,120
same,"IgG, % Change",hemolytic anemia,-60%
same,"IgM, % Change",hemolytic anemia,-32%
same,"IgG, Baseline",hemolytic anemia; [5],760
same,"IgM, Baseline",hemolytic anemia; [5],176
same,% Change in weight (thymus gland),thymus gland; 200 mg/kg,-53%
same,Avg. weight of thymus gland,thymus gland; 200 mg/kg,18.6 mg
[O-]c1c(-c2ccccc2)sc2sc3ccc(Cl)cc3[n+]12 [C],"IgG, mean (total number of plaques per spleen)",[1]; Day 4,"22,875 plaques per spleen"
same,"IgM, mean (total number of plaques per spleen)",[1]; Day 4,"110,643 plaques per spleen"
same,"IgG, mean (total number of plaques per spleen)",[1]; Day 5,"117,337 plaques per spleen"
same,"IgM, mean (total number of plaques per spleen)",[1]; Day 5,"55,518 plaques per spleen"
"O=P1(N(CCCl)CCCl)NCCCO1 (stereo not drawn) [Cyclophosphamide, cyclophosphamide, reference compound]",Mean % Inhibition of Paw Edema,[2]; 6 hours after challenge,58%
same,Mean % Inhibition of Paw Edema,[2]; 24 hours before challenge,56%
O=C(c1sc2sc3ccc(Cl)cc3[n+]2c1[O-])C(F)(F)F [D],"IgG, 1st Reading",hemolytic anemia,770
same,"IgM, 1st Reading",hemolytic anemia,190
same,"IgG, % Change",hemolytic anemia,+8%
same,"IgM, % Change",hemolytic anemia,+4%
same,"IgG, Baseline",hemolytic anemia; [5],710
same,"IgM, Baseline",hemolytic anemia; [5],182
same,% Change in weight (thymus gland),thymus gland; 200 mg/kg,-28%
same,Avg. weight of thymus gland,thymus gland; 200 mg/kg,28.4 mg
Oc1c(-c2ccccc2)sc2sc3ccc(Cl)cc3[n+]12 [E],% Change in weight (thymus gland),thymus gland; 75 mg/kg,-56%
same,Avg. weight of thymus gland,thymus gland; 75 mg/kg,17.5 mg
"[O-]c1c(-c2ccccc2)sc2sc3c([n+]12)CCCC3 [Example 11, 2-Phenyl-5,6,7,8-tetrahydrothiazolo[2,3-b]-benzothiazol-3(2H)-one mesoionic dedihydro derivative]","ANA (antinuclear antibody), 1st Reading",hemolytic anemia,neg.
same,"IgG, 1st Reading",hemolytic anemia,356
same,"IgM, 1st Reading",hemolytic anemia,134
same,"IgG, % Change",hemolytic anemia,-50%
same,"IgM, % Change",hemolytic anemia,-31%
same,"IgG, Baseline",hemolytic anemia; [5],710
same,"IgM, Baseline",hemolytic anemia; [5],194
same,% Change in weight (thymus gland),thymus gland; 200 mg/kg,-58%
same,Avg. weight of thymus gland,thymus gland; 200 mg/kg,16.8 mg
CCOc1ccc2c(c1)sc1sc(-c3ccccc3)c(O)[n+]12 [F],% Change in weight (thymus gland),thymus gland; 150 mg/kg,-16%
same,Avg. weight of thymus gland,thymus gland; 150 mg/kg,33.3 mg
Oc1c(-c2ccccc2)sc2sc3ccccc3[n+]12 [G],% Change in weight (thymus gland),thymus gland; 75 mg/kg,-29%
same,Avg. weight of thymus gland,thymus gland; 75 mg/kg,28.0 mg
Oc1c(-c2ccccc2)sc2sc3c([n+]12)CCCC3 [H],% Change in weight (thymus gland),thymus gland; 75 mg/kg,+2%
same,Avg. weight of thymus gland,thymus gland; 75 mg/kg,40.5 mg
"c1ccc([C@H]2CN3CCSC3=N2)cc1 [Levamisole, L-(-)-2,3,5,6-tetrahydro-6-phenylimidazo[2,1-b]thiazole, reference compound]",IgG level,[3]; 47 Days,560 mg./100 ml.
same,IgM level,[3]; 47 Days,68 mg./100 ml.
same,IgG level,[3]; 76 Days,710 mg./100 ml.
same,IgM level,[3]; 76 Days,140 mg./100 ml.
same,IgG level,[3]; 111 Days,710 mg./100 ml.
same,IgM level,[3]; 111 Days,128 mg./100 ml.
same,IgG level,[3]; 154 Days,910 mg./100 ml.
same,IgM level,[3]; 154 Days,142 mg./100 ml.
same,IgG Total Change From Baseline,[3],+460 mg./100 ml.
same,IgM Total Change From Baseline,[3],+98.5 mg./100 ml.
same,IgG level,[3]; Pretreatment,450 mg./100 ml.
same,IgM level,[3]; Pretreatment,43.5 mg./100 ml.
same,IgG level,[4]; 47 Days,404 mg./100 ml.
same,IgM level,[4]; 47 Days,49 mg./100 ml.
same,IgG level,[4]; 76 Days,490 mg./100 ml.
same,IgM level,[4]; 76 Days,83 mg./100 ml.
same,IgG level,[4]; 111 Days,980 mg./100 ml.
same,IgM level,[4]; 111 Days,136 mg./100 ml.
same,IgG level,[4]; 154 Days,900 mg./100 ml.
same,IgM level,[4]; 154 Days,154 mg./100 ml.
same,IgG Total Change From Baseline,[4],+440 mg./100 ml.
same,IgM Total Change From Baseline,[4],+90 mg./100 ml.
same,IgG level,[4]; Pretreatment,460 mg./100 ml.
same,IgM level,[4]; Pretreatment,64 mg./100 ml.
